Measured values from the supplement of paper PMC10307832.

compound: CN(C)C(=N)NC(=N)N [Metformin] + CC(=O)c1c(C)c2cnc(Nc3ccc(N4CCNCC4)cn3)nc2n(C2CCCC2)c1=O [Palbociclib] (partner 0.5 µM); experiment: relative viability (nuclei count vs DMSO), 5 days (fraction); higher = more cells survive; settings: first compound 10 µM
How it was run: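 Lung cancer cell lines in 1536-well plates got either a single drug or a fixed anchor-drug dose together with five library-drug doses (not always all listed) in √10 steps, by pin tool, on the day after seeding. Nuclei were counted after 5 days, and relative viability is the treated-to-vehicle ratio of nuclei counts. Values are medians of duplicate plates.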

Compared with NCI-H522, NCI-H647 is lower in relative viability: 1.7 for the first, 0.222 for the second.

First: NCI-H650
Second: NCI-H661
The relative viability of the first is lower: 0.33 for the first, 0.382 for the second.

Compared with NCI-H727, NCI-H838 is lower in relative viability: 0.672 for the first, 0.295 for the second.

Going from NCI-H1355 to NCI-H1395, the relative viability rises from 0.341 to 0.504.

Going from NCI-H1437 to NCI-H1650, the relative viability falls from 0.384 to 0.316.

Compared with NCI-H1651, NCI-H1666 is higher in relative viability: 0.556 for the first, 0.695 for the second.

Going from NCI-H1734 to NCI-H1755, the relative viability rises from 0.284 to 0.411.

Compared with NCI-H1793, NCI-H1944 is higher in relative viability: 0.297 for the first, 0.386 for the second.

Compared with NCI-H1975, NCI-H1993 is higher in relative viability: 0.438 for the first, 0.63 for the second.

Going from NCI-H2009 to NCI-H2023, the relative viability rises from 0.194 to 0.321.

First: NCI-H2085
Second: NCI-H2087
The relative viability of the first is higher: 0.475 for the first, 0.263 for the second.

First: NCI-H2126
Second: NCI-H2170
The relative viability of the first is higher: 0.399 for the first, 0.334 for the second.

NCI-H2228 gave a relative viability of 0.626.

same assay, conditions: first compound 31.62 µM

Going from NCI-H522 to NCI-H647, the relative viability falls from 1.24 to 0.436.

Going from NCI-H650 to NCI-H661, the relative viability rises from 0.278 to 0.391.

Compared with NCI-H727, NCI-H838 is lower in relative viability: 0.78 for the first, 0.278 for the second.

First: NCI-H1355
Second: NCI-H1395
The relative viability of the first is lower: 0.36 for the first, 0.716 for the second.

First: NCI-H1437
Second: NCI-H1650
The relative viability of the first is higher: 0.459 for the first, 0.381 for the second.

First: NCI-H1651
Second: NCI-H1666
The relative viability of the first is higher: 0.681 for the first, 0.616 for the second.

Compared with NCI-H1734, NCI-H1755 is higher in relative viability: 0.329 for the first, 0.397 for the second.

Going from NCI-H1792 to NCI-H1793, the relative viability falls from 0.663 to 0.39.

Compared with NCI-H1915, NCI-H1944 is higher in relative viability: 0.406 for the first, 0.44 for the second.

Compared with NCI-H1975, NCI-H1993 is higher in relative viability: 0.682 for the first, 0.701 for the second.

Compared with NCI-H2009, NCI-H2023 is higher in relative viability: 0.321 for the first, 0.341 for the second.

Compared with NCI-H2085, NCI-H2087 is lower in relative viability: 0.447 for the first, 0.226 for the second.

Compared with NCI-H2126, NCI-H2170 is higher in relative viability: 0.349 for the first, 0.389 for the second.

In the case of NCI-H2228, the relative viability is reported as 0.782.

same assay, conditions: first compound 100 µM

Compared with NCI-H522, NCI-H647 is lower in relative viability: 1.06 for the first, 0.555 for the second.

Compared with NCI-H650, NCI-H661 is lower in relative viability: 0.385 for the first, 0.371 for the second.

Compared with NCI-H727, NCI-H838 is lower in relative viability: 0.818 for the first, 0.261 for the second.

Going from NCI-H1355 to NCI-H1395, the relative viability rises from 0.382 to 0.627.

Going from NCI-H1437 to NCI-H1650, the relative viability falls from 0.439 to 0.424.

Going from NCI-H1651 to NCI-H1666, the relative viability falls from 0.652 to 0.642.

Going from NCI-H1734 to NCI-H1755, the relative viability rises from 0.292 to 0.43.

Compared with NCI-H1792, NCI-H1793 is lower in relative viability: 0.817 for the first, 0.387 for the second.

Compared with NCI-H1915, NCI-H1944 is lower in relative viability: 0.515 for the first, 0.404 for the second.

First: NCI-H1975
Second: NCI-H1993
The relative viability of the first is lower: 0.584 for the first, 0.739 for the second.

Compared with NCI-H2009, NCI-H2023 is higher in relative viability: 0.228 for the first, 0.3 for the second.

Compared with NCI-H2085, NCI-H2087 is lower in relative viability: 0.469 for the first, 0.268 for the second.

First: NCI-H2126
Second: NCI-H2170
The relative viability of the first is lower: 0.307 for the first, 0.386 for the second.

With NCI-H2228 the relative viability was 0.747.

same assay, conditions: first compound 316.23 µM

First: NCI-H522
Second: NCI-H647
The relative viability of the first is higher: 1.08 for the first, 0.382 for the second.

First: NCI-H650
Second: NCI-H661
The relative viability of the first is lower: 0.326 for the first, 0.37 for the second.

Going from NCI-H838 to NCI-H1355, the relative viability rises from 0.271 to 0.358.

First: NCI-H1395
Second: NCI-H1437
The relative viability of the first is higher: 0.508 for the first, 0.389 for the second.

Compared with NCI-H1650, NCI-H1651 is higher in relative viability: 0.229 for the first, 0.519 for the second.

Going from NCI-H1666 to NCI-H1734, the relative viability falls from 0.681 to 0.359.

Going from NCI-H1755 to NCI-H1792, the relative viability rises from 0.433 to 0.698.

First: NCI-H1793
Second: NCI-H1915
The relative viability of the first is lower: 0.353 for the first, 0.462 for the second.

Going from NCI-H1944 to NCI-H1975, the relative viability rises from 0.344 to 0.591.

Compared with NCI-H1993, NCI-H2009 is lower in relative viability: 0.576 for the first, 0.122 for the second.

Compared with NCI-H2023, NCI-H2085 is higher in relative viability: 0.285 for the first, 0.435 for the second.

Compared with NCI-H2087, NCI-H2126 is higher in relative viability: 0.218 for the first, 0.322 for the second.

Going from NCI-H2170 to NCI-H2228, the relative viability rises from 0.354 to 0.526.

same assay, conditions: first compound 1000 µM

First: NCI-H522
Second: NCI-H647
The relative viability of the first is higher: 1.21 for the first, 0.417 for the second.

First: NCI-H650
Second: NCI-H661
The relative viability of the first is lower: 0.348 for the first, 0.365 for the second.

First: NCI-H727
Second: NCI-H838
The relative viability of the first is higher: 0.618 for the first, 0.298 for the second.

First: NCI-H1355
Second: NCI-H1395
The relative viability of the first is lower: 0.383 for the first, 0.448 for the second.

Going from NCI-H1437 to NCI-H1650, the relative viability falls from 0.4 to 0.305.

Going from NCI-H1651 to NCI-H1666, the relative viability rises from 0.605 to 0.714.

Going from NCI-H1734 to NCI-H1755, the relative viability rises from 0.371 to 0.416.

Going from NCI-H1792 to NCI-H1793, the relative viability rises from 0.238 to 0.361.

Going from NCI-H1915 to NCI-H1944, the relative viability falls from 0.463 to 0.404.

First: NCI-H1975
Second: NCI-H1993
The relative viability of the first is lower: 0.644 for the first, 0.67 for the second.

First: NCI-H2009
Second: NCI-H2023
The relative viability of the first is lower: 0.202 for the first, 0.237 for the second.

First: NCI-H2085
Second: NCI-H2087
The relative viability of the first is higher: 0.453 for the first, 0.235 for the second.

First: NCI-H2126
Second: NCI-H2170
The relative viability of the first is lower: 0.328 for the first, 0.391 for the second.

NCI-H2228 was tested, and the relative viability was 0.946.
